Source: US9867794B2, “Regulation of osteopontin” (Pathologica LLC, priority 2007, dated 2018)

Tests used:
[1] = test system: CD14+/CD16+ cells; assay: Macrophage activation via flow cytometry, mononuclear cells cultured for 3 days; format: cell-based
Method: (§1) We investigated macrophage activation via flow cytometry and levels of pro- and anti-inflammatory cytokines in cell culture supernatants of mononuclear cells. 10 μg/ml recombinant human OPN (rOPN) was added to mononuclear cells cultured for 3 days, with and without fetal bovine serum (FBS) in cell culture medium, and analyzed via flow cytometry. […] An increase in CD14+/CD16+ cells was also observed with cells cultured in serum free medium and rOPN in comparison to control. To observe the effects of OPN neutralizing antibody on macrophage activation, 10 μg of antibody was added to cultures for 3 days. […] We also investigated the levels of pro- and anti-inflammatory cytokines in all cell culture supernatants of each time point. On average, IL-6, IL-1β, TNF-α, IL-10, and IL-12p40 were at least 50-fold higher with rOPN at 24 and 72 hours in all culture conditions in comparison to control.

[2] = test system: CD14+/CD16+ cells; assay: Exogenous rOPN on macrophage yield, flow cytometry of PBMC cultures; format: cell-based, human; settings: 10 μg/ml rOPN
Method: To determine the role of exogenous recombinant human OPN (rOPN) in macrophage activation, 10 μg/ml rOPN(R&D Systems, Inc., Minneapolis, Minn.) was added to non-adherent PBMC cultures grown in complete or in serum free medium for 24 and 72 hours, and analyzed via flow cytometry. […] Shown in the upper right quadrant in FIG. 8 is the percentage of cells that are double positive for CD14 and CD16 surface markers.

[3] = test system: pro- and anti-inflammatory cytokines; assay: Cytokine levels in cell culture supernatants of mononuclear cells; format: cell-based; settings: rOPN
Method: as §1

[4] = test system: OPN protein; assay: OPN production inhibition assay in un-stimulated PBMC cultures, OPN protein; format: cell-based; settings: 10 μM
Method: (§2) 10 μM of each drug was added to un-stimulated PBMC cultures at time=0 and cells were harvested 1,3, and 6 days later for quantitative OPN RNA and protein production analysis.

[5] = test system: OPN RNA; assay: OPN production inhibition assay in un-stimulated PBMC cultures, OPN RNA; format: cell-based; settings: 10 μM, harvested 1, 3 and 6 days
Method: as §2

[6] = 24 and 72 hours, all culture conditions, on average
[7] = any time point and culture condition

With “rOPN: exogenous recombinant human OPN (R&D Systems, Inc.)” the “accumulation of CD14+/CD16+ cells vs FBS-only control” value ([1]; 10 μg/ml rOPN and FBS, 24 hours) was “no significant accumulation”, the “increase in CD14+/CD16+ cells vs control” value ([1]; 10 μg/ml rOPN, 72 hours) was 12 fold and the “CD14+/CD16+ cells vs control” value ([1]; 10 μg/ml rOPN, serum free medium) was “increase”. For the same molecule, the “accumulation of CD14+/CD16+ cells vs control” value ([2]; complete medium, 24 hours) was “no significant accumulation”, the “increase in CD14+/CD16+ cells vs control” value ([2]; complete medium, 72 hours) was 11 fold and the “increase in CD14+/CD16+ cells vs serum free control” value ([2]; serum free, 72 hours) was 2.97 fold. For the same molecule, the “IL-1β level vs control” value [3, 6] was “at least 50 fold”, the “IL-6 level vs control” value [3, 6] was “at least 50 fold” and the “IL-10 level vs control” value [3, 6] was “at least 50 fold”. The “IL-12p40 level vs control” value [3, 6] was “at least 50 fold”, the “TNF-α level vs control” value [3, 6] was “at least 50 fold” and the “IL-4 level vs control” value [3, 7] was “no significant difference”. The “IL-12p70 level vs control” value [3, 7] was “no significant difference”.

CCNCCCNC/C=C\CNCCCNCC.Cl.Cl.Cl.Cl [SL47, N,N′-bis(3-ethylaminopropyl)-cis-but-2-ene-1,4-diamine tetrahydrochloride] was tested, and the OPN protein production [4] was “Complete inhibition” and the “OPN RNA expression” value [5] was “inhibited in a time dependant manner”.

For CCNCCCCNC[C@@H]1C[C@H]1CNCCCCNCC [SL93, N,N′-(cyclopropane-1,2-diylbis(methylene))bis(N4-ethylbutane-1,4-diamine)], the OPN protein production [4] was “Complete inhibition” and the “OPN RNA expression” value [5] was “inhibited in a time dependant manner”.

B1: MCSF: growth factor MCSF (protein, UniProt P09603 33-554, looked up)
Macrophage colony-stimulating …: EEVSEYCSHMIGSGHLQSLQRLIDSQMETSCQITFEFVDQEQLKDPVCYLKKAFLLVQDIMEDTMRFRDNTPNAIAIVQLQELSLRLKSCFTKDYEEHDKACVRTFYETPLQLLEKVKNVFNETKNLLDKDWNIFSKNCNNSFAECSSQDVVTKPDCNCLYPKAIPSSDPASVSPHQPLAPSMAPVAGLTWEDSEGTEGSSLLPGEQPLHTVDPGSAKQRPPRSTCQSFEPPETPVVKDSTIGGSPQPRPSVGAFNPGMEDILDSAMGTNWVPEEASGEASEIPVPQGTELSPSRPGGGSMQTEPARPSNFLSASSPLPASAKGQQPADVTGTALPRVGPVRPTGQDWNHTPQKTDHPSALLRDPPEPGSPRISSLRPQGLSNPSTLSAQPQLSRSHSSGSVLPLGELEGRRSTRDRRSPAEPEGGPASEGAARPLPRFNSVPLTDTGHERQSEGSFSPQLQESVFHLLVPSVILVLLAVGGLLFYRWRRRSHQEPQRADSPLEQPEGSPLTQDDRQVELPV
B1 was tested, and the “OPN RNA expression” value [5] was “no effect”.
